# From patent publication US6057153A, “Stabilized external guide sequences” (Yale University, priority 1997, dated 2000)
# Tests used:
# [1] = APL patients, cited from earlier work
# NB4/D5 cells = assay: MTT proliferation assay; assay type: cell-based, human; conditions: for effect on cell growth as measured by MTT assay: NB4/D5 cells, 1 to 10 μM EGS, daily replacement; for concentration above which dose dependent inhibition of NB4 cell growth was observed: NB4 cells, MTT assay
# Experimental: Cell culture testing: NB4 cells, a maturation inducible cell line with t(15;17) translocation marker isolated from an acute promyelocytic leukemia patient (Lanotte et al. (1991)) was used to test the antiproliferative activity of EGSs targeted to PML-RARα. These cells respond to maturation-inducing effects of all-trans retinoic acid. One subclone of NB4 cells, NB4/D5, which uniformly responds to retinoic acid (Ahn et al. (1995)), was used for cell culture testing. The NB4 cells were grown in RPMI media containing 10% fetal bovine serum (Intergen, Purchase, N.Y.), 100 U/ml penicillin, 200 μg/ml streptomycin, and 20 mM glutamine with pCO2 of 5% at 37° C.
# All treatments were done in triplicate and experiments were repeated more than once. NB4/D5 cells which were maintained in logarithmic growth phase were seeded at a density of 1×10^5 cells in 1 ml of RPMI medium in a 24 well tissue culture plate. Increasing concentrations of EGS were added to the cells. More than 90% of the media was removed every 24 hours and replaced with fresh media containing the same concentration of EGS. An aliquot of the cells was removed every 24 hours and an MTT proliferation assay (as described by Mosmann et al., Journal of Immunological Methods, 65:55 (1983)) was performed on these cells.
# [2] = tested on: APL RNA (PML-RARα fusion junction); assay: Test tube cleavage assay; assay type: biochemical; conditions: 0.25 μM EGS, RNase P from HeLa cells
# Experimental: Test tube cleavage assay: Three nanograms of linearized pAPL-3Z3 plasmid with HindIII restriction enzyme was transcribed as described in Example 1 in presence of ^32 P-ATP for 30 minutes 0.25 μM (final concentration) of EGS and 2 μl of a purified preparation of RNase P from HeLa cells (Bartkiewicz et al., Genes and Development, 3:488-499 (1989)) was added to the transcription reaction during the transcription. The reaction products were separated on a denaturing polyacrylamide gel and visualized using a Molecular Dynamics PHOSPHORIMAGER™.
# HBV RNA = assay: RNase protection assay after transfection of pol III EGS expression vectors; assay type: cell-based; conditions: HepG2.2.15 cells transfected with EGS plasmids
# Description: Cloning of EGS 2 and EGS 62: pREP9 (Invitrogen, San Diego, Calif.), an Epstein-Barr virus-based vector (Yates et al., Nature, 313:812-815 (1985)), was cut with XbaI and KpnI to remove the RSV LTR promoter sequence in the vector and a 244 nucleotide human U6 promoter (hU6; from nucleotide +1 to -244) was cloned into this region. cDNAs corresponding to EGS 2 and EGS 62 (see FIGS. 19 and 20, respectively) were synthesized on an Applied Biosystems DNA synthesizer, purified and cloned downstream of the hU6 promoter between KpnI and BamHI. The EGS sequence and the hU6 promoter sequence were excised using XbaI and BamHI and subcloned in pCEP4 (Invitrogen, San Diego, Calif.) that had been digested with BglII and NheI. […]
# All plasmids were amplified in bacteria and the plasmid DNAs were purified using Qiagen (Qiagen Inc., Chatsworth, Calif.) columns. […] The protected fragments were separated on a 6% denaturing polyacrylamide gel, and the radioactivity associated with the protected bands were quantitated using a Molecular Dynamics PHOSPHORIMAGER™. The quantitation of the GAPDH RNA was used to normalize the samples.
# [3] = Nuclease resistance studies in 50% human serum; assay type: in vitro ADME; conditions: 37° C., 24 h
# Experimental: Nuclease resistance studies--100 μl of EGS oligonucleotides (5 μM), containing a trace of 5'-end-labeled oligomers, were incubated at 37° C. for different time periods (0-24 h) with 50% human serum (Sigma, S-7023). 20 μl aliquots were diluted to 100 μl with RNase-free water, phenol/chlorform extracted, and ethanol precipitated. The residue was resuspended in 10 μl of TE and 10 μl of 2× gel loading buffer containing 98% formamide, 10 mM1 EDTA and 0.1% bromophenol blue. The mixture was heated to 85° C. for 1 min, quickly cooled on ice and frozen at -20° C. prior to electrophoresis on 15% polyacrylamide/8 M urea gels. Gels were subsequently scanned on a Molecular Dynamics PHOSPHORIMAGER™, and the stability profile for each, oligomer was estimated from the ratio of the remaining intact materials versus all radio-labeled materials (intact oligomers plus degradation products). Stability studies of non radio-labeled EGS oligomers using capillary gel electrophoresis were also carried out according to the method of Leeds et al. (15).
# [4] = tested on: EGS/target RNA complex (SUB-156) with human RNase P; assay: Measurements of kcat and A50; assay type: biochemical, hepatitis B virus (HBV)
# Experimental: Measurements of kcat, Km and A50 --Measurements of these kinetic parameters were carried out using conditions similar to those described above (e.g. identical cleavage buffers). For kcat measurements, aliquots were taken every 30-60 s for the first 5 min. The logarithm of the percentage of cleavage (Abs. Cleavage %) was plotted against time, and the data points were fitted using a linear least-squaresanalysis. The slope represents kcat values. For Km measurements,a fixed amount of RNase P (0.6 μl) was used, while substrate concentrations (i.e. EGS/target RNA complex) varied from 25 to 500 nM. Several EGS/target RNA ratios were assayed including 1:1, 5:1 and 10:1. Attempts were made to obtain Km and Vmax values from linear Lineweaver-Burk or Eadie-Hofstee plots. The scattered values could not be fit as a hyperbolic function. For A50 measurements, the ratio between EGS and target RNA was kept as 10:1. Various amounts of RNase P (0.3 to 3 μl) were used to conduct a 60-min cleavage reaction. Percentage of cleavage was plotted against [RNase P] in μl, and 50% cleavage values (A50) were determined using a non-linear, least-squares routine (Kaleidagraph, Synergy Software). The amount of RNase P required to reach A50 was then converted to enzyme unit. 1 unit of RNase P represents the amount of RNase P that catalyzes the conversion of 1 pmol of tRNA^Tyr precursor to cleavage products per minute per μl of the enzyme preparation. 1 unit of RNase P preparation used for this study equals 28.57 μl.
# Substrate RNA (SUB-156) = assay: RNase P-mediated cleavage assay, single turnover conditions; assay type: biochemical, hepatitis B virus (HBV); conditions: 200 nM EGS, 20 nM substrate, saturating RNase P, 60 min
# Experimental: RNase P-mediated cleavage assay--Human RNase P was purified from HeLa cells according to the published procedures (14). Substrate RNA (SUB-156, FIG. 24) was 5'-end labeled using T4 polynucleotide kinase and [γ-^32P]ATP. The labeling mixture was then heated to 85° C. for 1 min, diluted with RNase-free water, and purified by a MICROSPIN™ G-25 column (Pharmacia) according to the manufacturer's instructions. Cleavage reactions were conducted in a reaction buffer containing 50 mM Tris-HCl (pH 7.4), 25 mM KCl, 10 mM MgCl2 and 0.1 mM EDTA. EGS oligomers and ^32 p-5'-end-labeled RNA substrate were heated in the reaction buffer without MgCl2 to 85° C. for 1 min and then slowly cooled to room temperature. The cleavage reaction was initiated by adding 2 μl of 100 mM MgCl2 and 3 μl of RNase P (enzyme activity for this preparation: cleavage of 0.035 pmol of tRNA^Tyr precursor min^-1 μl^-1). The final reaction volume was 20 μl and the reaction was incubated at 37° C. for 60 min. […] For each sample, cleavage reactions were performed in duplicates and the average values were used. To ensure reproducibility, cleavage assays for each EGS were also repeated in two separate experiments. The all-RNA EGS-159 was used as the reference sample and its cleavage values were counted as 100%. Cleavage percentages of all other EGSs were normalized against EGS-159 (Rel. Cleavage %) except in FIG. 30 and FIG. 31 where absolute cleavage percentages (Abs. Cleavage %) were plotted.
# (§1) For EGS-single turnover conditions, the final concentrations were 200 nM for EGS and 20(nM for the RNA substrate. For EGS-multiple turnover conditions, the final concentrations were 200 nM for the RNA substrate and 40 nM for EGS. When determination of the time-course was required, the reaction volume was increased to 40 μl. Aliquots of 5-8 μl were removed from the reaction mixture at different time points (e.g. 1, 5, 15, 30 and 60 min), quenched in formamide loading buffer, and loaded onto 15% polyacrylamide/8 M urea gels. Quantitation of the cleavage product and the remaining RNA substrate was achieved using a Molecular Dynamics PHOSPHORIMAGER™.
# General considerations--To select lead nuclease-resistant oligonucleotide prototypes as external guide sequences among many possible modifications, a reliable yet rapid in vitro cleavage assay for routine screening was used. Human RNase P, a ribonucleoprotein, is composed of a 340-nt H1 RNA component and one or more proteins (for recent review, see Ref. 16). A 3-step screening strategy was devised: 1) All analogues once synthesized were tested by a fast qualitative cleavage assay under single turnover conditions with 10-fold excess of EGS over target RNA substrate for 60 min. […] This was the best cleavage condition used in this study. Any analogue with a reasonable activity (e.g. more than 5% cleavage) would not be missed, under these circumstances, due to the high detection sensitivity provided by PHOSPHORIMAGER™. 2) Promising analogues were then assayed for stability in 50% human serum.
# target RNA SUB-156 = assay: RNase P-mediated cleavage, EGS-multiple turnover conditions; assay type: biochemical, hepatitis B virus (HBV); conditions: 5-fold of RNA target over EGS
# Experimental: FIG. 31 is a graph of a time-course of cleavage with selected EGSs under EGS-multiple turnover conditions. Experiments were conducted under similar conditions as that used in FIG. 30 with the exception that the molar ratio between ^32 P-5'-end-labeled target RNA SUB-156 and the respective EGSs was 5:1. Saturing amounts of RNase P were employed. Aliquots were withdrawn from the cleavage reaction at different time points, quenched in formamide loading buffer and loaded on 15% polyacryladmide/8 M urea gels. Absolute percentages of cleavage are expressed on the Y-axis. EGS-159 (.circle-solid.) is the all-RNA EGS control and EGS-407 (.smallcircle.) is one of the lead modified prototypes.
# as §1
compound,measurement,setting,value
"CC1=C(/C=C/C(C)=C/C=C/C(C)=C/C(=O)O)C(C)(C)CCC1 [TRETINOIN, all-trans retinoic acid]",patients in whom remission was induced,[1]; several published studies,about 48%
same,"duration of the remission, average",[1],3.5 months
APL 1009: EGS SEQ ID NO. 12 targeted to the fusion junction of PML-RARα (guide GUCUCAAGAAGGUUCGAAUCCUUCGGCUGCC; chemistry not given here),effect on cell growth as measured by MTT assay,NB4/D5 cells,inhibitory to cell growth
same,concentration above which dose dependent inhibition of NB4 cell growth was observed,NB4/D5 cells,above 3 μM
same,cleavage of the APL RNA at the fusion junction,[2],induced cleavage
APL A20: EGS SEQ ID NO. 11 targeted to the fusion junction of PML-RARα (guide GGGUCUCAGGCCCGGGUUCGAUUCCCGGUGGCUGC; chemistry not given here),effect on cell growth as measured by MTT assay,NB4/D5 cells,inhibitory to cell growth
same,concentration above which dose dependent inhibition of NB4 cell growth was observed,NB4/D5 cells,above 3 μM
same,cleavage of the APL RNA at the fusion junction,[2],induced cleavage
"EGS 2A: SEQ ID NO. 27, anti-HBV EGS expressed from hU6 pol III vector (guide GTGCTCGCTTCGGCAGCACTATACGCAGCGATCCGGGTTCCCGGCCAGGACACTATTTTT)",inhibition of HBV RNA expression (ranking),HBV RNA,maximal inhibition
"EGS-407: lead prototype, U54 replaced with thymidine, SEQ ID NO. 46 (AGAUGAUAGAAGGTUAGAAUCCUUCACGCCGC; guide RNA; Thymidine at tRNA position 54, rest of chemistry not given here)",degradation in 50% human serum,[3],no degradation products were detected
same,A50 (amount of RNase P required to achieve 50% cleavage),"[4]; 60 min, EGS in 10-fold excess relative to the RNA target",0.053 unit
same,kcat,"[4]; single turnover, first 5 min",indistinguishable from that of the all-RNA control
same,RNase P-mediated cleavage activity compared to the all-RNA control,Substrate RNA (SUB-156),promising
same,turnover over a course of 60 min,target RNA SUB-156,about 3 times
